A word on the Kd: it is the concentration at which binding is half-saturated. Higher therefore signals weaker binding.

The target of assay [1] is T1, D(2) dopamine receptor (Rattus norvegicus, UniProt P61169, S194A). In words: biochemical. It counts as cell-based, C6 glioma.
Assay [2] has as its target T2, D(2) dopamine receptor (Rattus norvegicus, UniProt P61169, S197A). In words: biochemical. It counts as cell-based, C6 glioma.
Assay [3] deals with D(2) dopamine receptor (Rattus norvegicus, UniProt P61169). In words: biochemical. It is filed as cell-based, C6 glioma.
Assay [4] concerns the target T1, D(2) dopamine receptor. In words: biochemical. It counts as cell-based, C6 glioma. The source holds these as a separate data set.
Assay [5] addresses D(2) dopamine receptor (Rattus norvegicus, UniProt P61169, S193A). In words: In vitro affinity at mutant D2 receptor (S193A) in C6 (glioma) cell membranes. It counts as cell-based.
In assay [6] the target is T1, D(2) dopamine receptor. In words: In vitro affinity at mutant D2 receptor (S194A) in C6 (glioma) cell membranes. It is filed as cell-based.
In assay [7] the target is T2, D(2) dopamine receptor. In words: In vitro affinity at mutant D2 receptor (S197A) in C6 (glioma) cell membranes. It counts as cell-based.

SMILES strings stand for the structures.

T2 sequence (P61169 whole entry S197A): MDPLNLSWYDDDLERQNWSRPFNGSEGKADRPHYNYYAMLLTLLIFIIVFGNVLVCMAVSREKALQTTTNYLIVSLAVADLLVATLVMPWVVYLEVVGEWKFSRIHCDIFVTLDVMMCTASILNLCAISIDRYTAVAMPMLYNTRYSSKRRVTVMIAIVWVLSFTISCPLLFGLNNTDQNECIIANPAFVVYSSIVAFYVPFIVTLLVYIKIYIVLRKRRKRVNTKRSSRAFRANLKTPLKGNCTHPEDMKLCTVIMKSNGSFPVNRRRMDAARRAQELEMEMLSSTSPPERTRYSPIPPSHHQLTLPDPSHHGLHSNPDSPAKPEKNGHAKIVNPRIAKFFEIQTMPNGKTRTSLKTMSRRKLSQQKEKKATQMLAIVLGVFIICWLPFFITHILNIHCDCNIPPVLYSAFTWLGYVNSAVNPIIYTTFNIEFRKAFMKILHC
T1 sequence (P61169 whole entry S194A): as the sequence (P61169 whole entry S197A) above, with S194A, A197S counted along it
Sequence of D(2) dopamine receptor (Rattus norvegicus, UniProt P61169) (P61169 whole entry): as the sequence (P61169 whole entry S197A) above, with A197S counted along it
Sequence of D(2) dopamine receptor (Rattus norvegicus, UniProt P61169, S193A) (P61169 whole entry S193A): as the sequence (P61169 whole entry S197A) above, with S193A, A197S counted along it

As to `CCN(CC)C(=O)N[C@H]1C=C2c3cccc4[nH]cc(c34)C[C@H]2N(C)C1` [LISURIDE], the Kd in assay [1] was determined as 2.3 nM; in assay [2], 0.4 nM; in assay [3], 0.6 nM; in assay [4] it was 0.3 nM.
`CCCN1Cc2c(C)cccc2[C@@H]2c3cc(O)c(O)cc3CC[C@H]21`: the dissociation constant Kd in assay [5] came to 1300 nM; in assay [6] it was 400 nM; in assay [7], 700 nM; in assay [3], 300 nM; in assay [3] (c6 glioma) it was 300 nM; in assay [4] it was 1300 nM.
With `COc1cc(CCN)ccc1O`, the Kd in assay [1] came out at 88000 nM; in assay [2], 225000 nM; in assay [3], 94000 nM; in assay [4], 251000 nM.
In the case of `CN1C[C@H](C(N)=O)C=C2c3cccc4[nH]cc(c34)C[C@H]21`, the Kd in assay [5] was 2.8 nM; in assay [6], 2.8 nM; in assay [7], 1 nM; in assay [3], 0.62 nM; in assay [3] (c6 glioma), 0.62 nM; in assay [4], 1.8 nM.
Consider `N[C@@H]1CCc2cc(O)c(O)cc2C1`, for which the Kd in assay [1] came out at 450 nM; in assay [2] it was 120 nM; in assay [3], 210 nM; in assay [4] it was 17000 nM.
`CC(C)C[C@H]1C(=O)N2CCC[C@H]2[C@]2(O)O[C@](NC(=O)[C@@H]3C=C4c5cccc6[nH]c(Br)c(c56)C[C@H]4N(C)C3)(C(C)C)C(=O)N12` [BROMOCRIPTINE]: the Kd in assay [1] amounted to 17 nM; in assay [2], 4 nM; in assay [3] it was 8 nM; in assay [4] it was 8 nM.
